The values below come from PMC8276771 (Bioorganic & medicinal chemistry letters, 2021).

A word on the IC50: it is the concentration that inhibits the measured activity by half. For orientation: EC50 means the concentration needed to bring the measured effect to its halfway point.

The target in one assay is human P2Y6R (Homo sapiens, UniProt Q15077). Put plainly: Calcium mobilization. The note with it: for P2Y6R activation (in words) / fold reduction of P2Y6R potency relative to UDP 1: calcium mobilization; for P2Y6R activation (in words): hP2Y6R.
In the next assay the test system is hP2YR. The note with it: cited from earlier work.
The target of the next assay is T1, hP2Y14R (Homo sapiens, UniProt Q15391).
T1 sequence (Q15391 1-338): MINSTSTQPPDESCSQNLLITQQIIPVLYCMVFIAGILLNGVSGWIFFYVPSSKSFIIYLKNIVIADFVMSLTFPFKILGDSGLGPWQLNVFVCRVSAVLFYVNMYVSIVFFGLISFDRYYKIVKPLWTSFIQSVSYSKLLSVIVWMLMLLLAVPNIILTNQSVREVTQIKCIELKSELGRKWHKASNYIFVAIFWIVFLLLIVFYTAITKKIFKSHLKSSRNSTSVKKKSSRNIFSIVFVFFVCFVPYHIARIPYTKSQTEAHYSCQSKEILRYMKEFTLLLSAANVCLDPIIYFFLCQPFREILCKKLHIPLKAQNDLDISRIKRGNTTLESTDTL
Put plainly: Fluorescent antagonist binding assay by flow cytometry of hP2Y14R-CHO cells.

A further assay deals with rat CD73. The note with it: rat CD73, 5 μM AMP substrate, ref Junker et al. [33], cited from earlier work.
Assay [1] concerns 46 receptors, channels and transporters. Put plainly: PDSP off-target panel. Type of assay: binding.
The next assay concerns hP2Y6R. The note with it: read-out: hP2Y6R EC50; cited from earlier work.
The next assay concerns P2Y14R. The note with it: cited from earlier work.

Entries after “also recorded” stand apart in the source; their conditions may differ.

Sequence of human P2Y6R (Q15077 whole entry): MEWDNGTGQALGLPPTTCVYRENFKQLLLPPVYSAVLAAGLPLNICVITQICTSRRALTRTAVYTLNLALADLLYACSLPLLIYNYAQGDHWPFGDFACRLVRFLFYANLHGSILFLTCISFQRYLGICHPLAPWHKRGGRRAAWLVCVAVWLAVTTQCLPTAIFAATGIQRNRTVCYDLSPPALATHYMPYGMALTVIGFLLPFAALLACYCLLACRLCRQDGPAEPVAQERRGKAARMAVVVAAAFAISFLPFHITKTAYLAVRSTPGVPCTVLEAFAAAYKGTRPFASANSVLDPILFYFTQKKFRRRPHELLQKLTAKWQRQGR

In the case of `CCN(CC)CC.CCN(CC)CC.CCn1c(=O)n([C@@H]2O[C@H](COP(=O)(O)CP(=O)(O)O)[C@@H](O)[C@H]2O)cc/c1=N/OCc1ccccc1` [Compound 38], the “P2Y6R activation (in words)” value at human P2Y6R was “completely prevent P2Y6R activation; also recorded: prevented P2Y6R activation”. For `CCN(CC)CC.CCN(CC)CC.O=c1[nH]/c(=N/OCc2ccccc2)ccn1[C@@H]1O[C@H](COP(=O)(O)OP(=O)(O)O)[C@@H](O)[C@H]1O` [Compound 13], the “fold reduction of P2Y6R potency relative to UDP 1” value on human P2Y6R is listed as 19 fold.

For the compound `CCN(CC)CC.CCN(CC)CC.CO/N=c1/ccn([C@@H]2O[C@H](COP(=O)(O)OP(=O)(O)O)[C@@H](O)[C@H]2O)c(=O)[nH]1` [Compound 11], at human P2Y6R, the “fold reduction of P2Y6R potency relative to UDP 1” value was determined as 12 fold. Take `O=c1ccn([C@@H]2O[C@H](COP(=O)(O)O)[C@@H](O)[C@H]2O)c(=O)[nH]1` [UMP]: the “activation of hP2YRs (in words)” value with hP2YR is listed as “does not activate any hP2YR”.

For the compound `CCN(CC)CC.CCN(CC)CC.O=c1[nH]c(=O)n([C@@H]2O[C@H](COP(=O)(O)CP(=O)(O)O)[C@@H](O)[C@H]2O)cc1F` [Compound 16, 5-Fluoro-5′-αβ-methylene-UDP], the “selectivity between P2Y6R and P2Y14R (in words)” value at hP2Y14R is “nonselective”. Further, in the assay with rat CD73 (read-out: CD73 IC50), the IC50 was greater than 1000 nM. On to `CCN(CC)CC.CCN(CC)CC.Cn1c(=O)n([C@@H]2O[C@H](COP(=O)(O)CP(=O)(O)O)[C@@H](O)[C@H]2O)cc/c1=N/OCc1ccccc1` [Compound 37], for which the “P2Y6R activation (in words)” value at human P2Y6R was “completely prevent P2Y6R activation; also recorded: prevented P2Y6R activation”. As to `O=c1ccn([C@@H]2O[C@H](COP(=O)(O)CP(=O)(O)O)[C@@H](O)[C@@H]2O)c(=O)[nH]1` [Compound 39], on human P2Y6R, the “P2Y6R activation (in words)” value is “completely prevent P2Y6R activation; also recorded: prevented P2Y6R activation”. As for `CCN(CC)CC.CCN(CC)CC.O=C(/N=c1/ccn([C@@H]2O[C@H](COP(=O)(O)CP(=O)(O)O)[C@@H](O)[C@H]2O)c(=O)[nH]1)c1ccccc1` [Compound 30], the “selectivity between P2Y6R and P2Y14R (in words)” value at hP2Y14R is reported as “nonselective”.

As for `O=c1[nH]/c(=N\OCc2ccc(S(F)(F)(F)(F)F)cc2)ccn1[C@@H]1O[C@H](COP(=O)(O)CP(=O)(O)O)[C@@H](O)[C@H]1O` [Compound 27], at human P2Y6R, the 50% effective concentration (EC50) amounted to 1690 nM.

`O=c1ccn([C@@H]2O[C@H](COP(=O)(O)CP(=O)(O)O)[C@@H](O)[C@H]2O)c(=S)[nH]1` [Compound 14b, 2-thiouridine-5′-O-(α,β-methylene)diphosphate, reference compound]: the “off-target activities (significant = >50% binding inhibition at 10 μM)” value in assay [1] is “no significant”. In the assay with rat CD73 (1 μM), the “CD73 % inhibition at 1 μM” value was 7%. With `O=c1cnn([C@@H]2O[C@H](COP(=O)(O)CP(=O)(O)O)[C@@H](O)[C@H]2O)c(=O)[nH]1` [Compound 40], the “P2Y6R activation (in words)” value at human P2Y6R is “completely prevent P2Y6R activation; also recorded: prevented P2Y6R activation”. Take `O=c1ccn([C@@H]2O[C@H](COP(=O)(O)OP(=O)(O)OP(=O)(O)O)[C@@H](O)[C@H]2O)c(=O)[nH]1` [UTP]: the EC50 in the assay with hP2Y6R is greater than 10000 nM. Moreover, in the assay with P2Y14R, the “P2Y14R activity (in words)” value was “inactive”.
